What is called Ki is a dissociation constant, usually derived from enzyme kinetics or from competition with a known ligand.

This assay deals with nuclear factor-kappa B (NF-kB)-inducing kinase (NIK) (Homo sapiens (Human), UniProt Q99558). Description: NIK enzyme inhibition assay (Transcreener ADP, NIK ADP-FP). The assay is classed as biochemical. The following applies: purified NIK 0.5 nM, 10 μM ATP, fluorescence polarization; read-out: NIK ADP-FP (Ki μM).
Chain of nuclear factor-kappa B (NF-kB)-inducing kinase (NIK) (Q99558 whole entry): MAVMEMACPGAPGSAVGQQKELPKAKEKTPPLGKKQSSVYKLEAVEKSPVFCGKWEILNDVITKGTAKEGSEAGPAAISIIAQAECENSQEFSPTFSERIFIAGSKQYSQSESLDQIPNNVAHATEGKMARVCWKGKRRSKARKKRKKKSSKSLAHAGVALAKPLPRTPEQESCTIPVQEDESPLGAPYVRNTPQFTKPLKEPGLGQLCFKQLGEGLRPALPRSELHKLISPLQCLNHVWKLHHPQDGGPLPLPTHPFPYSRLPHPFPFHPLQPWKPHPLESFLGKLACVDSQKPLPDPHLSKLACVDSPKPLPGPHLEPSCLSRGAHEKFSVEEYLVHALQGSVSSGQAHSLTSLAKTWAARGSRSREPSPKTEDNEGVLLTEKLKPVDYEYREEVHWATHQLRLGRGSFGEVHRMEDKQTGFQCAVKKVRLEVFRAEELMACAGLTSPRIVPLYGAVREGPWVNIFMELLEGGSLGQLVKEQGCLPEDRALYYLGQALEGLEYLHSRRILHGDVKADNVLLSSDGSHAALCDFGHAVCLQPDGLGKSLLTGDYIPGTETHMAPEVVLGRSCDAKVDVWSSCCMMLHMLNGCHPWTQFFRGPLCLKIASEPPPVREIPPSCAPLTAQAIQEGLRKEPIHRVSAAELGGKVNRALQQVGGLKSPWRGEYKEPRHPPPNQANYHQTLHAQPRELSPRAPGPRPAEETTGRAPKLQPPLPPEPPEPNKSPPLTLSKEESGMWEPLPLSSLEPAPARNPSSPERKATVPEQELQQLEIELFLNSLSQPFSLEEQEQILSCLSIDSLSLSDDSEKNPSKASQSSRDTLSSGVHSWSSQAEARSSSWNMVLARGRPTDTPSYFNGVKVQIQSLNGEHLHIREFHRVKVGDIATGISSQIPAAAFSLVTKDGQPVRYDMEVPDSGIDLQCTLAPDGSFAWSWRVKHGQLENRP
As to `CN1CC[C@@](O)(C#Cc2ccnc(-n3nc(C(N)=O)c4c3C[C@@H](O)CC4)c2)C1=O` [Compound 62, (6S)-6-hydroxy-1-[4-[2-[(3R)-3-hydroxy-1-methyl-2-oxo-pyrrolidin-3-yl]ethynyl]-2-pyridyl]-4,5,6,7-tetrahydro-indazole-3-carboxamide], the Ki came to 5.47 nM. For the molecule `CN1CC[C@@](O)(C#Cc2cccc(-n3nc(C(N)=O)c4c3CS(=O)(=O)CC4)c2)C1=O` [Compound 68, 1-[3-[2-[(3R)-3-hydroxy-1-methyl-2-oxo-pyrrolidin-3-yl]ethynyl]phenyl]-6,6-dioxo-5,7-dihydro-4H-thiopyra-no[3,4-c]pyrazole-3-carbox-amide], the Ki stood at 237 nM. Then `Cc1cc(C(N)=O)nn1-c1cc(C#C[C@]2(O)CCN(C)C2=O)ccn1` [Compound 79, 1-[4-[2-[(3R)-3-hydroxy-1-methyl-2-oxo-pyrrolidin-3-yl]ethynyl]-2-pyridyl]-5-meth-yl-pyrazole-3-carboxamide], with 10.8 nM; and `Cc1cc([C@](C)(O)C#Cc2ccnc(-n3nc(C(N)=O)cc3C)c2)no1` [Compound 80, 1-[4-[(3R)-3-hydroxy-3-(5-methylisoxazol-3-yl)but-1-ynyl]-2-pyridyl]-5-methyl-pyrazole-3-carboxamide], with 84.5 nM.

Take `Cc1cc([C@](C)(O)C#Cc2ccnc(-n3nc(C(N)=O)c(Cl)c3C)c2)no1` [Compound 82, 4-chloro-1-[4-[(3R)-3-hydroxy-3-(5-methylisoxazol-3-yl)but-1-ynyl]-2-pyridyl]-5-methyl-pyrazole-3-carboxamide]: the Ki was 99.1 nM.

With `CN1CC[C@@](O)(C#Cc2cccc(-c3nc(C(N)=O)c4n3CCCC4)c2)C1=O` [Compound 84, 3-[3-[2-[(3R)-3-hydroxy-1-methyl-2-oxo-pyrrolidin-3-yl]ethynyl]phenyl]-5,6,7,8-tetra-hydroimidazo[1,5-a]pyri-dine-1-carboxamide], the Ki came out at 33.9 nM. In the case of `CN1CC[C@@](O)(C#Cc2cccc(-c3nc(C(N)=O)n4c3NCC4)c2)C1=O` [Compound 87, 7-[3-[2-[(3R)-3-hydroxy-1-methyl-2-oxo-pyrrolidin-3-yl]ethynyl]phenyl]-2,3-dihy-dro-1H-imidazo[1,5-a]imida-zole-5-carboxamide], the Ki turned out to be 20.4 nM. On to `Cc1cn(-c2ccc3c(c2)c(C(N)=O)nn3-c2cccc(C#C[C@]3(O)CCN(C)C3=O)c2)cn1` [Compound 106, 1-[3-[2-[(3R)-3-hydroxy-1-methyl-2-oxo-pyrrolidin-3-yl]ethynyl]phenyl]-5-(4-meth-ylimidazol-1-yl)indazole-3-carboxamide], for which the Ki turned out to be 0.05 nM. For the molecule `CC(=O)N1CC(c2cnc3c(c2)c(C(N)=O)nn3-c2cccc(C#C[C@]3(O)CCN(C)C3=O)c2)C1` [Compound 107, 5-(1-acetylazetidin-3-yl)-1-[3-[2-[(3R)-3-hydroxy-1-meth-yl-2-oxo-pyrrolidin-3-yl]ethynyl]phenyl]pyrazolo[3,4-b]pyridine-3-carboxamide], the Ki was determined as 1.82 nM. In the case of `CN1CC[C@@](O)(C#Cc2cccc(-n3nc(C(N)=O)c4[nH]c(=O)ccc43)c2)C1=O` [Compound 108, 1-[3-[2-[(3R)-3-hydroxy-1-methyl-2-oxo-pyrrolidin-3-yl]ethynyl]phenyl]-5-oxo-4H-pyrazolo[4,3-b]pyridine-3-carboxamide], the Ki stood at 0.24 nM. Consider `CNC(=O)c1ccc2c(c1)c(C(N)=O)nn2-c1cccc(C#C[C@]2(O)CCN(C)C2=O)c1` [Compound 112, 1-[3-[2-[(3R)-3-hydroxy-1-methyl-2-oxo-pyrrolidin-3-yl]ethynyl]phenyl]-N5-meth-yl-indazole-3,5-dicarbox-amide], for which the inhibition constant Ki stood at 0.08 nM. Then `NC(=O)c1nn(-c2cccc(C#C[C@@]3(O)CCCC3=O)c2)c2ccccc12` [Compound 115, 1-[3-[2-[(1S)-1-hydroxy-2-oxo-cyclopentyl]ethynyl]phe-nyl]indazole-3-carboxamide], with 86.1 nM. As to `NC(=O)c1nn(-c2cccc(C#C[C@]3(O)CCCC3=O)c2)c2ccccc12` [Compound 116, 1-[3-[2-[(1R)-1-hydroxy-2-oxo-cyclopentyl]ethynyl]phe-nyl]indazole-3-carboxamide], the Ki stood at 0.63 nM. Turning to `C[C@](O)(C#Cc1cccc(-n2nc(C(N)=O)c3ccccc32)c1)c1c[nH]nn1` [Compound 118, 1-[3-[(3S)-3-hydroxy-3-(1H-triazol-4-yl)but-1-ynyl]phenyl]indazole-3-carboxamide], the Ki amounted to 16.6 nM. Regarding `CN1CC[C@@](O)(C#Cc2cccc(-n3nc(C(N)=O)c4c3CCN([S@@+](C)[O-])C4)c2)C1=O` [Compound 123, 1-[3-[2-[(3R)-3-hydroxy-1-methyl-2-oxo-pyrrolidin-3-yl]ethynyl]phenyl]-5-[(R)-methylsulfinyl]-6,7-dihydro-4H-pyrazolo[4,3-c]pyridine-3-carboxamide], the inhibition constant Ki amounted to 18 nM. Take `CN1CC[C@@](O)(C#Cc2cccc(-n3nc(C(N)=O)c4c3CCN([S@+](C)[O-])C4)c2)C1=O` [Compound 124, 1-[3-[2-[(3R)-3-hydroxy-1-methyl-2-oxo-pyrrolidin-3-yl]ethynyl]phenyl]-5-[(S)-methylsulfinyl]-6,7-dihydro-4H-pyrazolo[4,3-c]pyridine-3-carboxamide]: the Ki was 46.4 nM. With `CN1C[C@H](O)[C@@](O)(C#Cc2cccc(-n3nc(C(N)=O)c4ccccc43)c2)C1=O` [Compound 125, 1-[3-[2-[(3S,4S)-3,4-dihydroxy-1-methyl-2-oxo-pyrroli-din-3-yl]ethynyl]phenyl]in-dazole-3-carboxamide], the Ki came to 19.6 nM. Then `CN1C[C@@H](O)[C@@](O)(C#Cc2cccc(-n3nc(C(N)=O)c4ccccc43)c2)C1=O` [Compound 126, 1-[3-[2-[(3S,4R)-3,4-dihydroxy-1-methyl-2-oxo-pyrroli-din-3-yl]ethynyl]phenyl]inda-zole-3-carboxamide], with 591 nM. Turning to `CN1C[C@@H](O)[C@](O)(C#Cc2cccc(-n3nc(C(N)=O)c4ccccc43)c2)C1=O` [Compound 127, 1-[3-[2-[(3R,4R)-3,4-dihydroxy-1-methyl-2-oxo-pyrroli-din-3-yl]ethynyl]phenyl]inda-zole-3-carboxamide], the Ki was 10.2 nM. In the case of `CN1C[C@H](O)[C@](O)(C#Cc2cccc(-n3nc(C(N)=O)c4ccccc43)c2)C1=O` [Compound 128, 1-[3-[2-[(3R,4S)-3,4-dihydroxy-1-methyl-2-oxo-pyrroli-din-3-yl]ethynyl]phenyl]inda-zole-3-carboxamide], the Ki is 1250 nM. With `CN1CC[C@@](O)(C#Cc2cccc(-n3nc(C(N)=O)c4cnc(C#N)cc43)c2)C1=O` [Compound 133, 6-cyano-1-[3-[2-[(3R)-3-hy-droxy-1-methyl-2-oxo-pyrroli-din-3-yl]ethynyl]phenyl] pyrazolo[4,3-c]pyridine-3-carboxamide] the figure was 1.31 nM; with `N#Cc1cc2c(cn1)c(C(N)=O)nn2-c1cccc(C#C[C@]2(O)CCc3cccnc32)c1` [Compound 134, 6-cyano-1-[3-[2-[(7R)-7-hy-droxy-5,6-dihydrocyclopen-ta[b]pyridin-7-yl]ethynyl]phe-nyl]pyrazolo[4,3-c]pyridine-3-carboxamide], 1250 nM.

The values are drawn from patent US9605005B2, “Alkynyl alcohols and methods of use” (Genentech, Inc., priority 2013, dated 2017).
